Measurements: ChEMBL document CHEMBL5380782, “Design, Biological Evaluation, and Computer-Aided Analysis of Dihydrothiazepines as Selective Antichlamydial Agents” (J Med Chem, 2023)

Legend:
[1] = Mutagenicity in Salmonella typhimurium TA98 assessed as number of revertants per plate at 5000 ug pretreated for 90 mins measured after 66 hrs by AMES test (reference value: 25.67 +/- 5.51); format: toxicity, Salmonella enterica subsp. enterica serovar Typhimurium; conditions: in vivo, 67.5 h, dose 5000 µg
[2] = Mutagenicity in Salmonella typhimurium TA100 assessed as number of revertants per plate at 500 ug pretreated for 90 mins measured after 66 hrs by AMES test (reference value: 206 +/- 7.07); format: toxicity, Salmonella enterica subsp. enterica serovar Typhimurium; conditions: in vivo, 67.5 h, dose 500 µg
[3] = Cytotoxicity against HEK293 cells assessed as cell survival at 256 ug/ml incubated for 20 hrs by XTT assay relative to control; format: toxicity, cell-based; conditions: human, at 256 µg/mL, read-out: Survival
[4] = Cytotoxicity against HEC-1-A cells assessed as cell survival at 256 ug/ml incubated for 20 hrs by XTT assay relative to control; format: toxicity, cell-based; conditions: human, at 256 µg/mL, read-out: Survival
[5] = system: Candida albicans; experiment: Antimicrobial activity against Candida albicans 90028 assessed as microbial growth inhibition by broth microdilution method; format: functional
[6] = Stability of compound in simulated gastric fluid assessed as compound remaining at 2 mg/ml measured after 180 mins by HPLC analysis; format: ADME; conditions: read-out: Stability
[7] = Mutagenicity in Salmonella typhimurium TA98 assessed as number of revertants per plate at 150 ug pretreated for 90 mins measured after 66 hrs in presence of S9 fraction by AMES test (reference value: 24.33 +/- 9.50); format: toxicity, subcellular, Salmonella enterica subsp. enterica serovar Typhimurium; conditions: s9, 67.5 h, dose 150 µg
[8] = Mutagenicity in Salmonella typhimurium TA98 assessed as mutagenic index ratio at 1500 ug pretreated for 90 mins measured after 66 hrs in presence of S9 fraction by AMES test; format: toxicity, subcellular, Salmonella enterica subsp. enterica serovar Typhimurium; conditions: s9, 67.5 h, dose 1500 µg
[9] = system: Escherichia coli; experiment: Antimicrobial activity against Escherichia coli K12 assessed as microbial growth inhibition incubated for 24 hrs by TTC staining based assay; format: functional
[10] = system: Blautia producta; experiment: Antimicrobial activity against Blautia producta DSM 2950 assessed as microbial growth inhibition incubated for 48 hrs; format: functional
[11] = Mutagenicity in Salmonella typhimurium TA100 assessed as mutagenic index ratio at 5000 ug pretreated for 90 mins measured after 66 hrs by AMES test; format: toxicity, Salmonella enterica subsp. enterica serovar Typhimurium; conditions: in vivo, 67.5 h, dose 5000 µg
[12] = Mutagenicity in Salmonella typhimurium TA98 assessed as mutagenic index ratio at 500 ug pretreated for 90 mins measured after 66 hrs by AMES test; format: toxicity, Salmonella enterica subsp. enterica serovar Typhimurium; conditions: in vivo, 67.5 h, dose 500 µg
[13] = Mutagenicity in Salmonella typhimurium TA98 assessed as mutagenic index ratio at 50 ug pretreated for 90 mins measured after 66 hrs in presence of S9 fraction by AMES test; format: toxicity, subcellular, Salmonella enterica subsp. enterica serovar Typhimurium; conditions: s9, 67.5 h, dose 50 µg
[14] = system: Lactiplantibacillus plantarum; experiment: Antimicrobial activity against Lactobacillus plantarum DSM 20174 assessed as microbial growth inhibition incubated for 24 hrs; format: functional
[15] = Mutagenicity in Salmonella typhimurium TA100 assessed as number of revertants per plate at 150 ug pretreated for 90 mins measured after 66 hrs in presence of S9 by AMES test (reference value: 201 +/- 9.90); format: toxicity, Salmonella enterica subsp. enterica serovar Typhimurium; conditions: in vivo, 67.5 h, dose 150 µg
[16] = Mutagenicity in Salmonella typhimurium TA100 assessed as number of revertants per plate at 500 ug pretreated for 90 mins measured after 66 hrs in presence of S9 by AMES test (reference value: 201 +/- 9.90); format: toxicity, Salmonella enterica subsp. enterica serovar Typhimurium; conditions: in vivo, 67.5 h, dose 500 µg
[17] = system: Staphylococcus aureus; experiment: Antimicrobial activity against Staphylococcus aureus USA 300 JE2 assessed as microbial growth inhibition incubated for 24 hrs by TTC staining based assay; format: functional
[18] = Mutagenicity in Salmonella typhimurium TA98 assessed as mutagenic index ratio at 150 ug pretreated for 90 mins measured after 66 hrs by AMES test; format: toxicity, Salmonella enterica subsp. enterica serovar Typhimurium; conditions: in vivo, 67.5 h, dose 150 µg
[19] = system: Chlamydia trachomatis; experiment: Antibacterial activity against Chlamydia trachomatis serovar L2 infected in HEp-2 cells assessed as bacterial growth inhibition incubated for 16 hrs by IFA assay; format: functional, organism-based; conditions: serovar L2, HEp-2, 16 h
[20] = Mutagenicity in Salmonella typhimurium TA98 assessed as mutagenic index ratio at 1500 ug pretreated for 90 mins measured after 66 hrs by AMES test; format: toxicity, Salmonella enterica subsp. enterica serovar Typhimurium; conditions: in vivo, 67.5 h, dose 1500 µg
[21] = Mutagenicity in Salmonella typhimurium TA100 assessed as number of revertants per plate at 5000 ug pretreated for 90 mins measured after 66 hrs by AMES test (reference value: 206 +/- 7.07); format: toxicity, Salmonella enterica subsp. enterica serovar Typhimurium; conditions: in vivo, 67.5 h, dose 5000 µg
[22] = system: Chlamydia trachomatis; experiment: Antibacterial activity against Chlamydia trachomatis L2 infected in HEp-2 cells assessed as reduction in number of chlamydial inclusion at 3.12 ug/ml incubated for 24 hrs by fluorescence microscopy relative to control; format: functional; set-up: scale not given: the % may be the effect or the level left; conditions: dose 3.12 µg/ml
[23] = Stability of compound in simulated gastric fluid assessed as compound remaining at 2 mg/ml measured after 24 hrs by HPLC analysis; format: ADME; conditions: read-out: Stability
[24] = system: Pseudomonas aeruginosa; experiment: Antimicrobial activity against Pseudomonas aeruginosa PA01 assessed as microbial growth inhibition incubated for 24 hrs by TTC staining based assay; format: functional
[25] = Mutagenicity in Salmonella typhimurium TA100 assessed as mutagenic index ratio at 150 ug pretreated for 90 mins measured after 66 hrs by AMES test; format: toxicity, Salmonella enterica subsp. enterica serovar Typhimurium; conditions: in vivo, 67.5 h, dose 150 µg
[26] = Mutagenicity in Salmonella typhimurium TA98 assessed as number of revertants per plate at 50 ug pretreated for 90 mins measured after 66 hrs by AMES test (reference value: 25.67 +/- 5.51); format: toxicity, Salmonella enterica subsp. enterica serovar Typhimurium; conditions: in vivo, 67.5 h, dose 50 µg
[27] = system: Lacticaseibacillus rhamnosus; experiment: Antimicrobial activity against Lactobacillus rhamnosus CGMCC 1.3724 assessed as microbial growth inhibition incubated for 24 hrs by TTC staining based assay; format: functional
[28] = system: Pichia kudriavzevii; experiment: Antimicrobial activity against Pichia kudriavzevii 6558 assessed as microbial growth inhibition by broth microdilution method; format: functional
[29] = Mutagenicity in Salmonella typhimurium TA100 assessed as mutagenic index ratio at 150 ug pretreated for 90 mins measured after 66 hrs in presence of S9 by AMES test; format: toxicity, Salmonella enterica subsp. enterica serovar Typhimurium; conditions: in vivo, 67.5 h, dose 150 µg
[30] = Mutagenicity in Salmonella typhimurium TA100 assessed as mutagenic index ratio at 1500 ug pretreated for 90 mins measured after 66 hrs by AMES test; format: toxicity, Salmonella enterica subsp. enterica serovar Typhimurium; conditions: in vivo, 67.5 h, dose 1500 µg
[31] = Mutagenicity in Salmonella typhimurium TA98 assessed as mutagenic index ratio at 150 ug pretreated for 90 mins measured after 66 hrs in presence of S9 fraction by AMES test; format: toxicity, subcellular, Salmonella enterica subsp. enterica serovar Typhimurium; conditions: s9, 67.5 h, dose 150 µg
[32] = Stability of compound in human serum assessed as compound remaining at 2 mg/ml measured after 180 mins by HPLC analysis; format: ADME, cell-free; conditions: read-out: Stability
[33] = Mutagenicity in Salmonella typhimurium TA100 assessed as mutagenic index ratio at 500 ug pretreated for 90 mins measured after 66 hrs in presence of S9 by AMES test; format: toxicity, Salmonella enterica subsp. enterica serovar Typhimurium; conditions: in vivo, 67.5 h, dose 500 µg
[34] = system: Chlamydia trachomatis; experiment: Inhibition of recombinant Chlamydia trachomatis ClpX ATPase activity assessed as reduction in ATP consumption at 25 ug/ml incubated for 60 mins by Kinase Glo assay relative to control; conditions: dose 25.0 µg/ml
[35] = system: Anaerostipes caccae; experiment: Antimicrobial activity against Anaerostipes caccae […] assessed as microbial growth inhibition incubated for 48 hrs; format: functional
[36] = Stability of compound in human serum assessed as compound remaining at 2 mg/ml measured after 24 hrs by HPLC analysis; format: ADME, cell-free; conditions: read-out: Stability

`N#Cc1ccccc1C1Sc2ccccc2NC2=C1C(=O)c1ccccc12` (configuration not stated) gave an Activity [1] of 37.5, an Activity [2] of 233 and a viability at 20 h, 256 ug/ml [3] of no less than 75%. It also gave a viability at 20 h, 256 ug/ml [4] of no less than 75%, an MIC [5] greater than 1000 µg/mL and a remaining at 3 h, 2 mg/ml [6] of 90%. The Activity [7] was 35, the Ratio [8] was 1.25 and the MIC [9] was greater than 125 µg/mL. The MIC [10] was greater than 125 µg/mL, the Ratio [11] was 1.16 and the Ratio [12] was 1.48. It also gave a Ratio [13] of 1.31, an MIC [14] greater than 125 µg/mL and an Activity [15] of 187. The Activity [16] was 191.5, the MIC [17] was greater than 125 µg/mL and the Ratio [18] was 1.34. The IC50 ([19]; read-out: IC50) was 1.61 µg/mL, the IC50 ([19]; read-out: pIC50 (converted)) was 4.37 µM and the Ratio [20] was 1.51. For the same molecule, the Activity [21] was 241, the Activity [22] was less than 60% and the remaining at 24 h, 2 mg/ml [23] was 70%. The MIC [24] was greater than 125 µg/mL, the Ratio [25] was 0.91 and the Activity [26] was 26. It also gave an MIC [27] greater than 125 µg/mL, an MIC [28] greater than 1000 µg/mL and a Ratio [29] of 0.93. It also gave a Ratio [30] of 1.16, a Ratio [31] of 1.43 and a remaining at 3 h, 2 mg/ml [32] of 100%. The Ratio [33] was 0.95, the inhibition [34] was 20% and the MIC [35] was greater than 125 µg/mL. For the same molecule, the remaining at 24 h, 2 mg/ml [36] was 80%.
